# Measurements taken from patent publication US8067447B2, “Modulators of glucocorticoid receptor, AP-1, and/or NF-κB activity and use thereof” (Bristol-Myers Squibb Company, priority 2006, dated 2011).
# Where two headings read alike, the source gives them in different places.
# How the values were obtained:
# [1] = tested on: AP-1 induced transcriptional activity; assay: Cellular Transrepressional Assay (AP-1 luciferase reporter in A549 cells, PMA-activated); assay type: cell-based; conditions: A549 cells with 7x AP-1 luciferase reporter, 10 ng/ml PMA, read-out: AP-1 (EC50, nM) (Cellular Transrepression Assay)
# Procedure, shortened: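 Stable A549 AP-1 (7× sites) luciferase reporter line stimulated with 10 ng/ml PMA plus test molecules (0.1 nM to 40 μM) for 7 h. Luminescence read after 10 min with luciferase reagent; EC50 from % decrease of PMA-induced signal.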
# [2] = biological target: T1, human full-length glucocorticoid receptor (Homo sapiens, UniProt P04150); assay: Glucocorticoid Receptor Binding Assay (II), fluorescence polarization competitor kit (Fluormone GS1); conditions: cell lysate with recombinant human full-length GR, 1 nM Fluormone GS1, FP
# T1 construct: a cell lysate containing recombinantly expressed human full-length glucocorticoid receptor; purchased PanVera Co., Madison, Wis; P2816
# T1 sequence (P04150 1-777): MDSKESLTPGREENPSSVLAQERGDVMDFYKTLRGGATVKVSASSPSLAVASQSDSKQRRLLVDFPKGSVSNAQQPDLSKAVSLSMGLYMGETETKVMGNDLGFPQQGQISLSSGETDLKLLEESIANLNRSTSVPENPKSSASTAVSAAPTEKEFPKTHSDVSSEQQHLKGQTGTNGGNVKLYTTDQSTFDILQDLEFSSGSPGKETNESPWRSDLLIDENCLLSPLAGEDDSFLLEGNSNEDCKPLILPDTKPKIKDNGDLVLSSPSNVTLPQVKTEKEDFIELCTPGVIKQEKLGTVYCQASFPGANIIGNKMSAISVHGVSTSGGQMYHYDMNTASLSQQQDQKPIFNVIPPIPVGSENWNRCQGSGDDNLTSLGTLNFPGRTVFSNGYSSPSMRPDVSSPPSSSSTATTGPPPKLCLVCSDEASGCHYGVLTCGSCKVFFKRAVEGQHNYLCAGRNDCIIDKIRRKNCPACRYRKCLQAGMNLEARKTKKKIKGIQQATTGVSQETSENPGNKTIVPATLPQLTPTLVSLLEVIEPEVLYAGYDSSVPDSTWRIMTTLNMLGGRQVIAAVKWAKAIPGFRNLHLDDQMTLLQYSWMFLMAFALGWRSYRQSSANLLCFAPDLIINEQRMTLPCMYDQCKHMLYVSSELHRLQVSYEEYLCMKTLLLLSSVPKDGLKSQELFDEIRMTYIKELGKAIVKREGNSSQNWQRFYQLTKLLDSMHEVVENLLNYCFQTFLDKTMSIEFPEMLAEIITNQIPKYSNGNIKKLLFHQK
# Method: In order to measure the binding of compounds on the glucocorticoid receptor a commercially available kit was used (Glucocorticoid receptor competitor assay kit, PanVera Co., Madison, Wis., P2816). Briefly, a cell lysate containing recombinantly expressed human full-length glucocorticoid receptor was mixed with a fluorescently labeled glucocorticoid (1 nM Fluormone GS1) in the presence or absence of test compound. After one hour at room temperature, the fluorescence polarization (FP) of the samples were measured.
# [3] = biological target: T2, human glucocorticoid receptor (Homo sapiens, UniProt P04150); assay: Glucocorticoid Receptor Binding Assay (I), fluorescence polarization competitor kit (Fluormone GS Red); conditions: purified human recombinant full-length GR 2 nM, 1 nM Fluormone GS Red, FP; read-out: GR (Ki, nM) (GR Binding Assay (I))
# T2 construct: purified human recombinant full-length glucocorticoid receptor (2 nM); purchased Invitrogen Part #2893
# T2 sequence (P04150 1-777): T1 sequence (P04150 1-777)
# Method: Briefly, purified human recombinant full-length glucocorticoid receptor (2 nM) was mixed with fluorescently labeled glucocorticoid (1 nM Fluormone GS Red) in the presence or absence of test compound. After two hour incubation at room temperature in the dark, the fluorescence polarization (FP) of the samples was measured. […] Test compounds were analyzed in the concentration range from 8.5E-05 μM to 5 μM.
Structure (SMILES),"EC50 ([1]; Homo sapiens, A549, 7 h)",Ki [2],EC50 ([1]; 7 hours),Ki [3]
"CC(C)CC1(c2ccc3c(cnn3-c3ccc(F)cc3)c2)CC1C(=O)Nc1nccs1 (mixture of isomers) [Example 100, Cis and trans-2-(1-(4-fluorophenyl)-1H-indazol-5-yl)-2-isobutyl-N-(thiazol-2-yl)cyclopropanecarboxamide]",290 nM,102 nM,–,–
"CC(C)(C(=O)NC1CCCC1O)C(Cc1ccccc1)c1ccc2c(cnn2-c2ccc(F)cc2)c1 (single isomer, unassigned) [Example 124-isomerA]",–,7.5 nM,> 10000 nM,–
"CC(C)(C(=O)NC1CCCC1O)C(Cc1ccccc1)c1ccc2c(cnn2-c2ccc(F)cc2)c1 (single isomer, unassigned) [Example 124-isomerB]",–,2.3 nM,> 10000 nM,–
"CC(C)(C(=O)NC1CCCC1O)C(Cc1ccccc1)c1ccc2c(cnn2-c2ccc(F)cc2)c1 (single isomer, unassigned) [Example 124-isomerC]",–,2.1 nM,1250 nM,–
"CC(C)(C(=O)NC1CCCC1O)C(Cc1ccccc1)c1ccc2c(cnn2-c2ccc(F)cc2)c1 (single isomer, unassigned) [Example 124-isomerD]",–,0.64 nM,40 nM,–
"CC(C)(C(=O)NC1CCCC1)C(Cc1ccccc1)c1ccc2c(cnn2-c2ccc(F)cc2)c1 (single isomer, unassigned) [Example 130, N-cyclopentyl-3-(1-(4-fluorophenyl)-1H-indazol-5-yl)-2,2-dimethyl-4-phenylbutanamide]",> 10000 nM,6.1 nM,–,–
"CC(C)(C(=O)NC1CCCC1)C(Cc1ccccc1)c1ccc2c(cnn2-c2ccc(F)cc2)c1 (single isomer, unassigned) [Example 131, N-cyclopentyl-3-(1-(4-fluorophenyl)-1H-indazol-5-yl)-2,2-dimethyl-4-phenylbutanamide]",–,3 nM,> 10000 nM,–
"Cc1ccccc1C(c1ccc2c(cnn2-c2ccc(F)cc2)c1)C(C)(C)C(=O)Nc1nccs1 (stereo not drawn) [Example 40, 3-(1-(4-fluorophenyl)-1H-indazol-5-yl)-2,2-dimethyl-N-(thiazol-2-yl)-3-o-tolylpropanamide]",2.1 nM,1.6 nM,–,–
"Cc1cccc(C(c2ccc3c(cnn3-c3ccc(F)cc3)c2)C(C)(C)C(=O)Nc2nccs2)c1 (stereo not drawn) [Example 41, 3-(1-(4-fluorophenyl)-1H-indazol-5-yl)-2,2-dimethyl-N-(thiazol-2-yl)-3-m-tolylpropanamide]",2.6 nM,2.3 nM,–,–
"Cc1ccc(C(c2ccc3c(cnn3-c3ccc(F)cc3)c2)C(C)(C)C(=O)Nc2nccs2)cc1 (stereo not drawn) [Example 42, 3-(1-(4-fluorophenyl)-1H-indazol-5-yl)-2,2-dimethyl-N-(thiazol-2-yl)-3-p-tolylpropanamide]",3.9 nM,1.9 nM,–,–
CC(C)(C(=O)Nc1nccs1)C(c1cccc(F)c1)c1ccc2c(cnn2-c2ccc(F)cc2)c1 (stereo not drawn) [Example 43],2.4 nM,2.9 nM,–,–
"CC(C)(C(=O)Nc1nccs1)C(c1ccc(F)cc1)c1ccc2c(cnn2-c2ccc(F)cc2)c1 (stereo not drawn) [Example 44, 3-(4-fluorophenyl)-3-(1-(4-fluorophenyl)-1H-indazol-5-yl)-2,2-dimethyl-N-(thiazol-2-yl)propanamide]",14 nM,2.4 nM,–,–
"C=CCC(c1ccc2c(cnn2-c2ccc(F)cc2)c1)C(C)(C)C(=O)Nc1nncs1 (stereo not drawn) [Example 45, 3-(1-(4-fluorophenyl)-1H-indazol-5-yl)-2,2-dimethyl-N-(1,3,4-thiadazol-2-yl)hex-5-enamide]",52 nM,2.6 nM,–,–
"CC(C)(C(=O)Nc1nncs1)C(C)(C)c1ccc2c(cnn2-c2ccc(F)cc2)c1 [Example 120, 3-(1-(4-fluorophenyl)-1H-indazol-5-yl)-2,2,3-trimethyl-N-(1,3,4-thiadiazol-2-yl)butanamide]",74 nM,–,–,5.8 nM

# Continued, values first:
"EC50 ([1]; Homo sapiens, A549, 7 h)",Ki [2],EC50 ([1]; 7 hours),Ki [3],Structure (SMILES)
–,1.6 nM,9 nM,–,"CC(C(=O)Nc1nncs1)C(c1ccccc1)c1ccc2[nH]ncc2c1 (single isomer, unassigned) [151-diast A, 3-(1H-Indazol-5-yl)-2-methyl-3-phenyl-N-(1,3,4-thiadiazol-2-yl)propanamide]"
–,283 nM,1740 nM,–,"CC(C(=O)Nc1nncs1)C(c1ccccc1)c1ccc2[nH]ncc2c1 (single isomer, unassigned) [151-diast B, 3-(1H-Indazol-5-yl)-2-methyl-3-phenyl-N-(1,3,4-thiadiazol-2-yl)propanamide]"
2500 nM,9.8 nM,–,–,"O=C(Nc1nncs1)C(c1ccccc1)C(c1ccccc1)c1ccc2[nH]ncc2c1 (single isomer, unassigned) [152-diast A, 3-(1H-Indazol-5-yl)-2,3-diphenyl-N-(1,3,4-thiadiazol-2-yl)propanamide]"
–,1150 nM,5000 nM,–,"O=C(Nc1nncs1)C(c1ccccc1)C(c1ccccc1)c1ccc2[nH]ncc2c1 (single isomer, unassigned) [152-diast B, 3-(1H-Indazol-5-yl)-2,3-diphenyl-N-(1,3,4-thiadiazol-2-yl)propanamide]"
–,18 nM,5000 nM,–,"O=C(Nc1nncs1)C(c1ccccc1)C(c1ccccc1)c1ccc2c(cnn2-c2ccc(F)cc2)c1 (single isomer, unassigned) [Example 145-isomerA, 3-(1-(4-fluorophenyl)-1H-indazol-5-yl)-2,3-diphenyl-N-(1,3,4-thiadiazol-2-yl)propanamide]"
–,1.1 nM,5 nM,–,"O=C(Nc1nncs1)C(c1ccccc1)C(c1ccccc1)c1ccc2c(cnn2-c2ccc(F)cc2)c1 (single isomer, unassigned) [Example 145-isomerB, 3-(1-(4-fluorophenyl)-1H-indazol-5-yl)-2,3-diphenyl-N-(1,3,4-thiadiazol-2-yl)propanamide]"
–,555 nM,5000 nM,–,"O=C(Nc1nncs1)C(c1ccccc1)C(c1ccccc1)c1ccc2c(cnn2-c2ccc(F)cc2)c1 (single isomer, unassigned) [Example 145-isomerC, 3-(1-(4-fluorophenyl)-1H-indazol-5-yl)-2,3-diphenyl-N-(1,3,4-thiadiazol-2-yl)propanamide]"
–,2.4 nM,45 nM,–,"O=C(Nc1nncs1)C(c1ccccc1)C(c1ccccc1)c1ccc2c(cnn2-c2ccc(F)cc2)c1 (single isomer, unassigned) [Example 145-isomerD, 3-(1-(4-fluorophenyl)-1H-indazol-5-yl)-2,3-diphenyl-N-(1,3,4-thiadiazol-2-yl)propanamide]"
> 10000 nM,496 nM,–,–,"CCOC(=O)c1cccc(-n2ncc3cc([C@H](c4ccccc4)C(C)(C)C(=O)Nc4nncs4)ccc32)c1 (stereo in doubt) [Example 95, ethyl 3-(5-(3-(1,3,4-thiadiazol-2-ylamino)-2,2-dimethyl-3-oxo-1-phenylpropyl)-1H-indazol-1-yl)benzoate]"
18 nM,1.7 nM,–,–,"CCCC(c1ccc2c(cnn2-c2ccc(F)cc2)c1)C(C)(C)C(=O)Nc1nncs1 (stereo not drawn) [Example 46, 3-(1-(4-fluorophenyl)-1H-indazol-5-yl)-2,2-dimethyl-N-(1,3,4-thiadazol-2-yl)hexanamide]"
–,634 nM,–,–,"CC(C)(C(=O)Nc1nncs1)[C@@H](c1ccccc1)c1ccc2c(cnn2-c2ccc(F)cc2C(=O)O)c1 [Example 157, 2-(5-((S)-3-(1,3,4-Thiadiazol-2-ylamino)-2,2-dimethyl-3-oxo-1-phenylpropyl)-1H-indazol-1-yl)-5-fluorobenzoic acid]"
3560 nM,–,–,3.6 nM,"CC(C)(C(=O)Nc1nccs1)C(c1ccccc1)c1cnc2c(cnn2-c2ccccc2)c1 (stereo not drawn) [Example 162, 2,2-dimethyl-3-phenyl-3-(1-phenyl-1H-pyrazolo[3,4-b]pyridin-5-yl)-N-(thiazol-2-yl)propanamide]"
